Reference: patent publication US20240277797A1, “METHOD FOR TREATING OR PREVENTING NEOVASCULAR EYE DISEASE” (Suzhou Mingren Pharmaceutical Biotechnology Co., Ltd., priority 2022, published 2024)
Where a SMILES comes first, the peptide text is derived from it.

What was measured:
[1] = tested on: CNV lesions; details: mouse, in vivo, ip
Description: One week after laser induction, mice with choroidal neovascularization were randomly divided into two groups (10 mice per group), and injected intraperitoneally with 5 mg of FITC-JP1 and 0.99 mg of FITC 100 uL (both groups were injected with equal amounts of FITC intraperitoneally), respectively. The intensity of FITC in the living retina was determined using the FFA method (n=5/group). To evaluate the accumulation of FITC in CNV lesions, mice were euthanized at 1, 3, 8, 24, and 48 h after intraperitoneal injection of FITC-JP1 or FITC, respectively. Then, choroidal spreads were observed by fluorescence microscopy.

[2] = Solubility of the synthesized peptides; type: physicochemical
Description: Peptide JP1 and others were synthesized by GL Biochem (Shanghai) Ltd. and Hybio Pharmaceutical Co., Ltd. (Shenzhen, China, under standard GMP conditions. Purity >98%, water-soluble. Freeze dried powder is stored for a long time at −20° C.

[3] = tested on: streptozotocin (STZ)-induced diabetes mouse model; assay: Streptozotocin-induced diabetes mouse model: retinal vascular density and leakage; type: in vivo; details: STZ diabetic mice, intraocular injection once a week, 4 times; compared to normal mice of the same age
Description: C57BL/6 mice (male, 3-5 weeks old) were administered with intraperitoneal injection of streptozotocin (STZ) (7.5 mg/mL; S-0130, Sigma Aldrich, St. Louis, MO, USA), fresh dissolved Na Citrate (CAM) buffer (pH: 4.5-4.7; S4641, Sigma) at a dose of 50 mg/kg, once daily, for 5 consecutive days. After one week, blood sugar ≥300 mg/dL was regarded as the onset of diabetes. Only mice with sustained high sugar for 3 weeks were used for subsequent experiments. […] The blood glucose of mice was measured every month to confirm the status of diabetes. Two months after the onset of diabetes, the mice were randomly divided into four groups with 10 mice in each group. […]
After the mice were anesthetized, 1 mL of PBS containing 40 mg/mL fluorescein isothiocyanate-glucan was perfused into the left ventricle (average mol wt: 2×10^6, Sigma, St Louis, MO, USA). […] Stretched preparation was made, and observe the flat bracket using a fluorescence microscope and take photos. The vascular density of capillary networks was analyzed using Angio Tool image analysis software. […]
Evans blue (45 mg/kg) was injected through the tail vein of mice for more than 10 s. […] Plasma Evans blue concentration was determined by taking 100 uL of blood. […]

solubility [2]	Molecule	accumulation of FITC at CNV lesions (retinal choroidal plain films) [1]	retinal vascular density [3]
water-soluble	N=C(N)NCCC[C@H](NC(=O)[C@H](Cc1ccccc1)NC(=O)[C@H](CCCNC(=N)N)NC(=O)[C@H](CC(=O)O)NC(=O)[C@H](COP(=O)(O)O)NC(=O)CNC(=O)[C@@H]1CCCN1C(=O)[C@@H](N)Cc1ccccc1)C(=O)NCC(=O)N[C@@H](CC(=O)O)C(=O)O [JP1] (HELM PEPTIDE1{F.P.G.[O=C([C@H](COP(=O)(O)O)N[*:1])[*:2]].D.R.F.R.G.D}$$$$V2.0; N-terminus and C-terminus assumed)	enhanced the accumulation of FITC at CNV lesions	
	Ranibizumab (antibody, chains of the INN, looked up, V domains shown, Fab, anti-VEGF antibody drug used as positive control) VH: EVQLVESGGGLVQPGGSLRLSCAASGYDFTHYGMNWVRQAPGKGLEWVGWINTYTGEPTYAADFKRRFTFSLDTSKSTAYLQMNSLRAEDTAVYYCAKYPYYYGTSHWYFDVWGQGTLVTVSS VL: DIQLTQSPSSLSASVGDRVTITCSASQDISNYLNWYQQKPGKAPKVLIYFTSSLHSGVPSRFSGSGSGTDFTLTISSLQPEDFATYYCQQYSTVPWTFGQGTKVEIK		no significant decrease in retinal vascular density
